# In ChEMBL document CHEMBL1130586 (Bioorg Med Chem Lett, 1998):
# What was measured:
# Histamine H3 receptor = Histamine H3 receptor (Cavia porcellus, UniProt Q9JI35); assay: Compound was tested for the agonist activity against histamine H3 receptor of guinea pig ileum; type: functional, tissue-based; conditions: read-out: pA2 (converted)
# Histamine H1 receptor [1] = target: T1, Histamine H1 receptor (Cavia porcellus, UniProt P31389); assay: Compound was tested for the contractile effects antagonized by mepyramine (1-1000 nM) against Histamine H1 receptor of guinea pig aorta.; type: functional; conditions: read-out: pA2 (converted)
# Histamine H1 receptor [2] = target: T1, Histamine H1 receptor; assay: Contractile effects antagonized by mepyramine (0.3-100 nM) against Histamine H1 receptor in guinea pig ileum; type: functional, tissue-based; conditions: read-out: pA2 (converted)
# [3] = target: Muscarinic acetylcholine receptor M3 (Cavia porcellus, UniProt Q8VH26); assay: Compound was tested for its agonist activity against M3-acetylcholine receptor of guinea pig ileum.; type: functional, tissue-based; conditions: read-out: pA2 (converted)
# [4] = target: Histamine H1 receptor (Cavia porcellus) (UniProt P31389); assay: Relative potency against Histamine H1 receptor of guinea pig aorta; type: functional, tissue-based
# [5] = target: Histamine H1 receptor (Cavia porcellus) (UniProt P31389); assay: Compound was tested for its […] in the presence of mepyramine (1-1000 nM) against Histamine H1 receptor of guinea pig aorta.; type: functional
# [6] = target: Histamine H1 receptor (Cavia porcellus) (UniProt P31389); assay: Compound was tested for binding affinity against guinea pig ileum; type: tissue-based
# [7] = target: Histamine H1 receptor (Cavia porcellus) (UniProt P31389); assay: Partial agonist activity against Histamine H1 receptor in guinea pig aorta; type: functional, tissue-based
# [8] = target: Histamine H1 receptor (Cavia porcellus) (UniProt P31389); assay: Partial agonist activity against Histamine H1 receptor in guinea pig ileum.; type: functional, tissue-based
# [9] = target: Histamine H1 receptor (Cavia porcellus) (UniProt P31389); assay: Partial agonist activity with mepyramine against Histamine H1 receptor in guinea pig ileum.; type: functional, tissue-based
# [10] = target: Histamine H1 receptor (Cavia porcellus) (UniProt P31389); assay: Relative potency against Histamine H1 receptor in guinea pig ileum.; type: functional, tissue-based
# [11] = target: Histamine H2 receptor (Cavia porcellus) (UniProt P47747); assay: Compound was tested for agonist activity against histamine H2 receptor of guinea pig atrium; type: functional, tissue-based; conditions: Cardiac atrium
# [12] = target: Histamine H1 receptor (Cavia porcellus) (UniProt P31389); assay: Compound was tested for its partial agonist activity in the presence of 1 nM mepyramine against Histamine H1 receptor in guinea pig ileum.; type: functional, tissue-based
# [13] = target: Histamine H1 receptor (Cavia porcellus) (UniProt P31389); assay: Compound was tested for its partial agonist activity in the presence of 10 nM mepyramine against Histamine H1 receptor in guinea pig ileum.; type: functional, tissue-based
# [14] = target: Histamine H1 receptor (Cavia porcellus) (UniProt P31389); assay: Compound was tested for its partial agonist activity in the presence of 100 nM mepyramine against Histamine H1 receptor in guinea pig ileum.; type: functional, tissue-based
# Chain of Histamine H3 receptor (Q9JI35 whole entry): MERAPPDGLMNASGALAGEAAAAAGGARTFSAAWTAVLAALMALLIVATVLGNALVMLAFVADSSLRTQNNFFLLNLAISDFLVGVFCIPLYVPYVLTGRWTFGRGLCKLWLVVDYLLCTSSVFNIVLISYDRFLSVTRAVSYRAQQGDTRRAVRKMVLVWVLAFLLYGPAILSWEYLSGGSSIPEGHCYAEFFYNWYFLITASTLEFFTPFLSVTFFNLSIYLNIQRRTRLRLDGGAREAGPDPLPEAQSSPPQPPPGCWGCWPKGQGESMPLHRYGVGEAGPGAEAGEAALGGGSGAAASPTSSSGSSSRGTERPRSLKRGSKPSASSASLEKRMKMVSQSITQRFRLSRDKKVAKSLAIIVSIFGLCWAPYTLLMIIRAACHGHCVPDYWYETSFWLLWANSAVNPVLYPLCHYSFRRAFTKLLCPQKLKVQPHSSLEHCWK
# T1 sequence (P31389 whole entry): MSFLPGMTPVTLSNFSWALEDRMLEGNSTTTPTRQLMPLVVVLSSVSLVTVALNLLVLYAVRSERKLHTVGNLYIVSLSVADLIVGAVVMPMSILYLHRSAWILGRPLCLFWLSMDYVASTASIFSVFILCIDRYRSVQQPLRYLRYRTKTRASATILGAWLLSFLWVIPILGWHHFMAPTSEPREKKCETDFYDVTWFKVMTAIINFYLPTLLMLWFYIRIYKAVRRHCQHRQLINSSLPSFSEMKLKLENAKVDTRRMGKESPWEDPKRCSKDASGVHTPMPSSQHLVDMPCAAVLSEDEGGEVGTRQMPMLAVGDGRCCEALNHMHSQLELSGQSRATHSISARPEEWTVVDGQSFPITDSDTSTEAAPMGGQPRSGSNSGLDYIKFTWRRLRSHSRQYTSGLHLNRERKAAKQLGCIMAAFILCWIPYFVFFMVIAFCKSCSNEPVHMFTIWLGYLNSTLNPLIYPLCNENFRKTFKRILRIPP
# Chain of Histamine H1 receptor (Cavia porcellus) (P31389 whole entry): as above
# Chain of Histamine H2 receptor (Cavia porcellus) (P47747 whole entry): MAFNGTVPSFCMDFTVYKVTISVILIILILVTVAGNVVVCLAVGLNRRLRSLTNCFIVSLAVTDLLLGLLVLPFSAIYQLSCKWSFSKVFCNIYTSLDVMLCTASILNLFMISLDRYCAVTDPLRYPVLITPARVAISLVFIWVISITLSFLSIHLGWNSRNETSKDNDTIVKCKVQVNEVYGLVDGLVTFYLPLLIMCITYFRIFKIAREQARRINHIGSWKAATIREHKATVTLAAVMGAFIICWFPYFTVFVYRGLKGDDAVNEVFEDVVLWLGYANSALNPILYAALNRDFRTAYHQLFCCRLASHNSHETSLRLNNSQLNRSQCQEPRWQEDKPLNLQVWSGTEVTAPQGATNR
# Chain of Muscarinic acetylcholine receptor M3 (Q8VH26 whole entry): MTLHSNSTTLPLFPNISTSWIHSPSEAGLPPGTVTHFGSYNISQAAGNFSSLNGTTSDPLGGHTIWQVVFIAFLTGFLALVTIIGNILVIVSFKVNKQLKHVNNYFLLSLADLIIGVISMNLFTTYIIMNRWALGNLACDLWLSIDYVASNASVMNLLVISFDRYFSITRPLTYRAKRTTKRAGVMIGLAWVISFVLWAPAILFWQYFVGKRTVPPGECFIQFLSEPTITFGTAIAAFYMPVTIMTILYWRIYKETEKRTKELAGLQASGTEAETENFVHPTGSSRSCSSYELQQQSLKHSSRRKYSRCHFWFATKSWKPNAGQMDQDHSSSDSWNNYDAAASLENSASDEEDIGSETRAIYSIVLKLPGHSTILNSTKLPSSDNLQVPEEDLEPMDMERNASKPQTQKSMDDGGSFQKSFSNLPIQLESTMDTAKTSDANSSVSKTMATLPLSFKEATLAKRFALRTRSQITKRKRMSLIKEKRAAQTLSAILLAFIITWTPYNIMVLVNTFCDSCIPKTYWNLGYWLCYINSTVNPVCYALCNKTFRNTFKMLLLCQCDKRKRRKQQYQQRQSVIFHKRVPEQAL
Kb (Histamine H3 receptor) [nM],Kb (Histamine H1 receptor [1]) [nM],Kb (Histamine H1 receptor [2]) [nM],Kb [3] [nM],Relative potency [4] [%],Emax [5] [%],pKp [6],Emax [7] [%],Emax [8] [%],Emax [9] [%],Relative potency [10] [%],pD2 [11],Emax [12] [%],Emax [13] [%],Emax [14] [%],Structure (SMILES)
6170,0.977,0.891,107000,,,,,,,,,,,,NCCc1cnc(-c2cccc(C(F)(F)F)c2)[nH]1
1120,1.41,1.2,26900,169,64,6.39,54,88,67,95,4.56,,,,CN(C)CCc1c[nH]c(-c2cccc(C(F)(F)F)c2)n1
,,,,94,,6.23,80,100,,128,3.48,97,80,65,NCCc1c[nH]c(-c2cccc(C(F)(F)F)c2)n1
,,0.741,,,,6.12,,36,20,28,4.36,,,,FC(F)(F)c1cccc(-c2nc(CCNC3CC3)c[nH]2)c1
11700,0.977,0.741,112000,43,75,6.17,76,95,71,109,3.86,,,,CNCCc1c[nH]c(-c2cccc(Br)c2)n1
1450,1.15,0.708,64600,31,49,6.2,58,81,58,87,4.74,,,,CN(C)CCc1c[nH]c(-c2cccc(Br)c2)n1

# Further lines, the compound ahead of its results:
Structure (SMILES),Kb (Histamine H3 receptor) [nM],Kb (Histamine H1 receptor [1]) [nM],Kb (Histamine H1 receptor [2]) [nM],Kb [3] [nM],Relative potency [4] [%],Emax [5] [%],pKp [6],Emax [7] [%],Emax [8] [%],Emax [9] [%],Relative potency [10] [%],pD2 [11],Emax [12] [%],Emax [13] [%],Emax [14] [%]
CCNCCc1c[nH]c(-c2cccc(C(F)(F)F)c2)n1,2340,,1.05,69200,,,5.68,,63,40,30,4.55,,,
CNCCc1c[nH]c(-c2cccc(C(F)(F)F)c2)n1,4370,0.832,0.912,115000,217,66,6.47,59,97,77,174,4.04,,,
NCCc1c[nH]c(-c2cccc(Br)c2)n1,6310,1.26,0.741,155000,,,5.97,64,100,,,,,,
NCCc1c[nH]cn1,,,,,,100,,100,100,100,,,,,
